Data set [1] can be described thus: Aqueous solubility of compound. The note with it: buffer. It is filed as physicochemical.
Data set [2] concerns SARS-CoV-2. The data set can be described thus: Antiviral activity against SARS CoV-2 USA-WA1/2020 infected in po dosed B6.Cg-Tg(K18-ACE2)2Prlmn/J mouse assessed as reduction in viral load in lung administered orally twice daily and measured on day 4 post inoculation. It is filed as functional, organism-based. To be noted: Severe acute respiratory syndrome coronavirus 2, dose 100-500 mg/kg, time 4.0 day.

The nature of data set [3]: Oral bioavailability in human. The note with it: in vivo. It counts as ADME, organism-based.
Data set [4] in a line: Plasma protein binding in human assessed as unbound fraction at 1 uM. It is filed as ADME, cell-free.
Another data set addresses T1, Cytochrome P450 2B6 (Homo sapiens, UniProt P20813).
T1 sequence (P20813 whole entry): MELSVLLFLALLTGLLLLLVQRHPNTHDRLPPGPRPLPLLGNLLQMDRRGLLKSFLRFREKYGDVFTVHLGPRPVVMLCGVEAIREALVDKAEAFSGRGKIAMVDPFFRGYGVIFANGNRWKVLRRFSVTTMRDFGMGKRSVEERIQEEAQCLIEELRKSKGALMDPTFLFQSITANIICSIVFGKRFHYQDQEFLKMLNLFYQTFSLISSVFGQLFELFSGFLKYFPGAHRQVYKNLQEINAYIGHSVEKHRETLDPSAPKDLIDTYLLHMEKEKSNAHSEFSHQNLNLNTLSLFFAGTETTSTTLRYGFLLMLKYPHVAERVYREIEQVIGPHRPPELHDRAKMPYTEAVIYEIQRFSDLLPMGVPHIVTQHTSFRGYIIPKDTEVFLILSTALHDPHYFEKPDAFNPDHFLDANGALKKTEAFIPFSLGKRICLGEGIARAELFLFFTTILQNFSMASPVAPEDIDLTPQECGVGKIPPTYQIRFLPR
Nature of the data set: Induction of CYP2B6 in human hepatocytes assessed as increase in CYP2B6 mRNA level at 20 uM measured after 48 hrs by PCR analysis relative to control. It counts as ADME, cell-based, Hepatocyte.

Data set [5] in a line: MRT in dog at 3 mg/kg, po or 1 mg/kg, iv measured upto 24 hrs by LC-MS analysis. It counts as ADME, organism-based, Canis lupus familiaris. The note with it: in vivo.
The target in another data set is T2, Cytochrome P450 1A2 (Homo sapiens, UniProt P05177).
T2 sequence (P05177 whole entry): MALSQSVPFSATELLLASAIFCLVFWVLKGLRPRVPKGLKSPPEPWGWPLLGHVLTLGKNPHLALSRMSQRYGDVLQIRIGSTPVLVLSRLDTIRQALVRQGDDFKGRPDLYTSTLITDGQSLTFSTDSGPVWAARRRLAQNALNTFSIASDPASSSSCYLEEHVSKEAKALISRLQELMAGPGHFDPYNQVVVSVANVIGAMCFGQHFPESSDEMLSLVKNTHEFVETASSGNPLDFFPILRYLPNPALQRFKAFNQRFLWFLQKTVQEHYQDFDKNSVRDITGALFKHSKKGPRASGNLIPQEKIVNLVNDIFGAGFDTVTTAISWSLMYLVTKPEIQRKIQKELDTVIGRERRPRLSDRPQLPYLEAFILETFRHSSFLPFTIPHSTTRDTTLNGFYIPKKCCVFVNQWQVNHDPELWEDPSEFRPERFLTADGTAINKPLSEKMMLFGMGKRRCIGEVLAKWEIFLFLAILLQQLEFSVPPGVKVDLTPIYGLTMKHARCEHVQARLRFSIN
The data set can be described thus: Reversible inhibition of CYP1A2 in human liver microsomes using phenacetin as substrate incubated for 5 mins in presence of NADPH-generating system by LC-MS/MS analysis. It counts as ADME, Microsome. On the technique in general: Liver microsomes are vesicles of endoplasmic reticulum, rich in cytochrome P450 enzymes.

Data set [6] is described as follows: Volume of distribution at steady state in dog by measuring compound and its epimer at 3 mg/kg, po or 1 mg/kg, iv measured upto 24 hrs by LC-MS analysis. It is filed as ADME, organism-based, Canis lupus familiaris. The note with it: in vivo.
Data set [7] in a line: Oral bioavailability in rat at 3 mg/kg measured upto 24 hrs by LC-MS analysis. It counts as ADME, organism-based. The note with it: in vivo.
Data set [8] relates to SARS-CoV-2. Nature of the data set: Antiviral activity against SARS CoV-2 USA-WA1/2020 infected in po dosed B6.Cg-Tg(K18-ACE2)2Prlmn/J mouse assessed as reduction in viral RNA level administered orally twice daily and measured on day 4 post inoculation by RT-PCR analysis. It is filed as functional, organism-based. The note with it: Severe acute respiratory syndrome coronavirus 2, dose 100-500 mg/kg, time 4.0 day.

Data set [9] deals with T3, PXR (nuclear receptor subfamily 1 group I member 2) (Homo sapiens, UniProt O75469).
T3 sequence (O75469 whole entry): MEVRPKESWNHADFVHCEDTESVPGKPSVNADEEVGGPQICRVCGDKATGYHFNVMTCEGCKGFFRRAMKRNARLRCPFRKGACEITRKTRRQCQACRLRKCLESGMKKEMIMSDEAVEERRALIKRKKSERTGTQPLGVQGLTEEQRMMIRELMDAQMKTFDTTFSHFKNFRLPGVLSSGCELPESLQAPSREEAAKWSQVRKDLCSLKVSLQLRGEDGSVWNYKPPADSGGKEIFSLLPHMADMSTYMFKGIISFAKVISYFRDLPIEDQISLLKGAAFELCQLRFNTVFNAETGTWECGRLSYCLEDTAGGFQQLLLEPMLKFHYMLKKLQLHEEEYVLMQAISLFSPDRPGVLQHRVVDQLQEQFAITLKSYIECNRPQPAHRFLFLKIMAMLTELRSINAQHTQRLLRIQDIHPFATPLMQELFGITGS
Nature of the data set: Activation of PXR (unknown origin) assessed as maximal activation at 30 uM relative to control. To be noted: read-out: Activity. It is filed as toxicity.

Data set [10] is described as follows: Plasma stability in human assessed as epimerization at 1 uM measured upto 3 hrs by LC-MS/MS analysis. It is filed as ADME, cell-free.
A further data set deals with Cytochrome P450 2D6 (Homo sapiens, UniProt P10635). Nature of the data set: Reversible inhibition of CYP2D6 in human liver microsomes using dextromethorphan as substrate incubated for 5 mins in presence of NADPH-generating system by LC-MS/MS analysis. It counts as ADME, Microsome.
Chain of Cytochrome P450 2D6 (P10635 whole entry): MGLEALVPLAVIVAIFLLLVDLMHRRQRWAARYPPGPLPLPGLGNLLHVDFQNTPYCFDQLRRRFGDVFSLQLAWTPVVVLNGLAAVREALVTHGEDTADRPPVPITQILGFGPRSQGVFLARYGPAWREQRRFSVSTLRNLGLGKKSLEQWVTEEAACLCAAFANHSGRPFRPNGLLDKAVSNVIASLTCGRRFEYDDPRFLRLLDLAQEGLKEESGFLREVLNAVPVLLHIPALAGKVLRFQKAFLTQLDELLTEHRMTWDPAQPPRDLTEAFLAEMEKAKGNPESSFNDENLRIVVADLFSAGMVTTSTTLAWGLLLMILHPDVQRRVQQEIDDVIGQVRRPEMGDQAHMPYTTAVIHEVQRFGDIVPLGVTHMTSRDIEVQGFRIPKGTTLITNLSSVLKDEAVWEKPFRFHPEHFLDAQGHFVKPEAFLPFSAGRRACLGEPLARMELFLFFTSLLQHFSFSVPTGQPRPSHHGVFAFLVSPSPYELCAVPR
The nature of data set [11]: Plasma protein binding in dog assessed as unbound fraction at 1 uM. It is filed as ADME, cell-free, Canis lupus familiaris.
Data set [12] can be described thus: Plasma stability in dog assessed as epimerization at 1 uM measured upto 3 hrs by LC-MS/MS analysis. It counts as ADME, cell-free, Canis lupus familiaris.
The target in data set [13] is T4, CYP3A (Homo sapiens, UniProt P08684+P20815+P24462+Q9HB55). The data set can be described thus: Reversible inhibition of CYP3A in human liver microsomes incubated for 5 mins in presence of NADPH-generating system by LC-MS/MS analysis. It is filed as ADME, Microsome.
For data set [14], the target named is T5, Nuclear receptor subfamily 1 group I member 2 (Homo sapiens, UniProt O75469).
T5 sequence (O75469 whole entry): T3 sequence (O75469 whole entry)
Nature of the data set: Activation of PXR (unknown origin). It is filed as toxicity.

In data set [15] the test system is SARS-CoV-2. Nature of the data set: Antiviral activity against SARS CoV-2 USA-WA1/2020 infected in B6.Cg-Tg(K18-ACE2)2Prlmn/J mouse assessed as log reduction in plaque-forming units in lung at […], po bid measured on day 4 post inoculation. It counts as functional, Severe acute respiratory syndrome coronavirus 2. The note with it: time 4 day.
A short description of data set [16]: Apparent permeability in MDCK cells. To be noted: dog. It is filed as ADME, cell-based, Canis lupus familiaris.
Data set [17] is described as follows: Volume of distribution at steady state in rat by measuring compound and its epimer at 3 mg/kg, po or 1 mg/kg, iv measured upto 24 hrs by LC-MS analysis. It counts as ADME, organism-based. The note with it: in vivo.
In data set [18] the target is T4, CYP3A. The data set can be described thus: Time dependent inhibition of CYP3A in human liver microsomes assessed as inhibition constant. It counts as ADME, Microsome.

This is an account of results in ChEMBL document CHEMBL5528064, “Invention of MK-7845, a SARS-CoV-2 3CL Protease Inhibitor Employing a Novel Difluorinated Glutamine Mimic” (J Med Chem, 2024).

Structures are written as SMILES. Converted amounts (≈) assume the structure as drawn. Where only a bound is given, the exact number is not on record here.

In data set [1], `CNC(=O)C(=O)[C@H](CCC(C)(F)F)NC(=O)[C@@H]1[C@H]2CCC[C@H]2CN1C(=O)[C@@H](NC(=O)OC)C(C)(C)C` returned a solubility of 4500 µg/mL (≈ 8.71 mM). For the same molecule, the results for the Activity entry in the data set with SARS-CoV-2 [2], on Cytochrome P450 2B6 and in the data set on SARS-CoV-2 [8] were “Dose-Dependent Effect”, 7% and “Dose-Dependent Effect”, respectively. In addition, the bioavailability in data set [3] is 67%; in [7], 65%. Also, the values for the fraction unbound at 1 µM in [4] and in [11] were 0.27 and 0.09, respectively. The molecule further showed an MRT in data set [5] of 2.5 h. The IC50 at Cytochrome P450 1A2 and on Cytochrome P450 2D6 was > 200 µM in each case. Besides, the results for the Vdss in data set [6] and in data set [17] were 0.4 L/kg and 2.8 L/kg, respectively. For the same molecule, in [9], the Emax at 30 µM was 29%. Moreover, the Stability result in [10] and in data set [12] was “Unstable” in each case. Further, the IC50 at 5 min on CYP3A [13] came to 118 µM. In addition, the EC50 in [14] is > 30 µM. Moreover, the “log(activity)” value in the data set with SARS-CoV-2 [15] was determined as 1.7. Besides, the apparent permeability coefficient (Papp) in data set [16] worked out at 5.7 ×10⁻⁶ cm/s. At CYP3A [18], the Ki worked out at 110 µM.

One may read the solubility as the concentration that dissolves in the medium under given conditions. A low value points to a poorly soluble substance. In general, bioavailability refers to the share of a dose that reaches the circulation, judged against a reference dose that is usually intravenous. The low end stands for little systemic uptake, the high end for much systemic uptake. One may read the fraction unbound as free concentration divided by total concentration. The MRT is a mean duration of stay, worked out from the concentration-time curve. The term IC50 denotes the point on the concentration scale where inhibition reaches its midpoint. A word on the EC50: it is the concentration that produces a half-maximal response. A low value points to a more potent agent. A word on the Papp: it is the rate of passage across a membrane or cell layer, normalised by area and donor concentration.
